Measured values taken from patent US9550811B2, “Peptide scaffold design” (BIONOR IMMUNO AS, priority 2010, dated 2017).
Where no end group is shown, it is not given here. [ ]: non-standard residue; d: D form. Cit = NC(=O)NCCC[C@H](N)C(=O)O; Nle = CCCC[C@H](N)C(=O)O

Experiments:
Assay in all cases: REVEAL binding assay
Settings in all cases: score as percentage of the signal generated by the positive control peptide
[1] = test system: HLA-A1
Protocol: (§2) Binding properties to HLA for the ninemers listed in table 6 were tested for the following HLA-classes:
(§3) HLA-A1, HLA-A2, HLA-A3, HLA-A11, HLA-A24, HLA-A29, HLA-B7, HLA-B8, HLA-B14, HLA-B15, HLA-B27, HLA-B35, HLA-B40.
(§4) The REVEAL™ binding assay determined the ability of each candidate peptide to bind to one or more MHC class I alleles and stabilizing the MHC-peptide complex. […] Detection is based on the presence or absence of the native conformation of the MHC-peptide complex. Each peptide is given a score relative to the positive control peptide, which is a known T cell epitope.

[2] = test system: HLA-A24
Protocol: as §2, §3, §4

[3] = test system: HLA-A29
Description: as §3, §4

[4] = test system: HLA-B8
Description: as §3, §4

[5] = test system: HLA-B14
[6] = test system: HLA-B15
Description: as §3, §4

[7] = target: HLA-A11 (Homo sapiens, UniProt P04439, A114D/F33Y/S129P)
Summary of the method: (§1)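 Synthetic nonamer peptides were tested for their ability to bind and stabilize MHC class I–peptide complexes, detected by the native conformation of the complex. Each peptide is scored relative to a positive-control known T-cell epitope.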

[8] = target: HLA-A2 (Homo sapiens, UniProt P04439, D140Y/D185E/D98H/E176V/E277Q/G131W/G231S/I119V/I121R/I166T/I218V/N151K/N90K/P208A/P217A/Q86G/Q94H/R138H/R169H)
Summary of the method: as §1

[9] = target: HLA-A3 (Homo sapiens, UniProt P04439)
HLA-A3, sequence (P04439 25-299): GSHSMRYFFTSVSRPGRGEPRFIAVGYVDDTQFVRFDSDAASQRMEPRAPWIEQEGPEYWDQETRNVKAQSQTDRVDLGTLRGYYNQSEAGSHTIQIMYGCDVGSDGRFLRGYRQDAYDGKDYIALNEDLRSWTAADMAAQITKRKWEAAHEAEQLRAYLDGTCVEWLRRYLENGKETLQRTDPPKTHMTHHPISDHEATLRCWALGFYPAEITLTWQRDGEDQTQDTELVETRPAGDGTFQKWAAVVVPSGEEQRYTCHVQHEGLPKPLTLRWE
HLA-A3, sequence (P61769 21-119, further chain): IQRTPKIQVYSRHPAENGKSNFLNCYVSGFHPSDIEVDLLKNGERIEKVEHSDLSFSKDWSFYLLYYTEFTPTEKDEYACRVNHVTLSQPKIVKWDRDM
Summary of the method: as §1

[10] = target: HLA-B27 (Homo sapiens, UniProt P01889, D138H/D201E/E176V/E204Q/G107R/H137Y/K202T/N104T/N87E/Q56L/Q94K/R106L/R155S/R180L/S101D/S121N/S48T/Y140D/Y33H/Y91C)
Summary of the method: as §1

[11] = target: HLA-B7 (Homo sapiens, UniProt P01889)
HLA-B7, sequence (P61769 21-119): as the sequence (P61769 21-119, further chain) above
HLA-B7, sequence (P01889 25-299): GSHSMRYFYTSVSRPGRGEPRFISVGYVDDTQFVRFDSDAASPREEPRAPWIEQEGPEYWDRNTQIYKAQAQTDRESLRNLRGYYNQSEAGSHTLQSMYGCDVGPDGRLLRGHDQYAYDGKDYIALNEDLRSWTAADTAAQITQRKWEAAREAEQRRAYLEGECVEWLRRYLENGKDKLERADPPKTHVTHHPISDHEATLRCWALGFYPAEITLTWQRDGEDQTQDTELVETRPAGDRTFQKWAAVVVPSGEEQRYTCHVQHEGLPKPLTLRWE
Summary of the method: as §1

[12] = test system: HLA-B35
[13] = test system: HLA-B40
Summary of the method: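 Peptide–MHC class I complex stability assay on nonamers. Output: quantitative % relative to high-affinity control epitope, with putative pass/fail designation.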

Row | Substance | REVEAL binding score, HLA-type A1 [1] [%] | REVEAL binding score, HLA-type A24 [2] [%] | REVEAL binding score, HLA-type A29 [3] [%] | REVEAL binding score, HLA-type B8 [4] [%] | REVEAL binding score, HLA-type B14 [5] [%] | REVEAL binding score, HLA-type B15 [6] [%] | REVEAL binding score, HLA-type A11 [7] [%] | REVEAL binding score, HLA-type A2 [8] [%] | REVEAL binding score, HLA-type A3 [9] [%] | REVEAL binding score, HLA-type B27 [10] [%] | REVEAL binding score, HLA-type B7 [11] [%] | REVEAL binding score, HLA-type B35 [12] [%] | REVEAL binding score, HLA-type B40 [13] [%]
1 | L[Nle]GYIPLIG | 14.33 | 0.71 | 25.94 | 17.29 | 0.15 | 14.60 | 2.48 | 49.48 | 3.98 | 0.73 | 0.89 | 2.85 | 57.46
2 | MGYIPLVGA | 11.34 | 0.35 | 19.54 | 14.88 | 0.73 | 8.85 | 4.79 | 10.71 | 3.40 | 0.83 | 0.80 | 0.85 | 40.78
3 | NIPGSTYSL | 8.41 | 8.50 | 31.99 | 7.66 | 0.46 | 4.46 | 3.20 | 5.71 | 3.98 | 2.29 | 4.80 | 4.71 | 37.01
4 | NLGKVIDTL | 18.14 | 1.16 | 10.67 | 16.86 | 0.57 | 12.59 | 12.81 | 7.70 | 6.41 | 2.64 | 2.64 | 4.39 | 53.82
5 | NLGRVIETL | 18.24 | 0.86 | 16.44 | 15.58 | 0.07 | 16.29 | 4.53 | 11.97 | 2.86 | 1.66 | 1.47 | 2.82 | 38.91
6 | NLPGCSFSI | 13.15 | 85.91 | 22.34 | 9.89 | 0.36 | 3.11 | 3.47 | 47.28 | 8.15 | 3.37 | 1.54 | 5.31 | 60.68
7 | NYATGNLPG | 11.16 | 1.13 | 34.26 | 9.96 | 0.79 | 6.06 | 4.69 | 3.94 | 8.65 | 2.33 | 0.51 | 6.44 | 75.28
8 | PRLGVRATR | 17.77 | 0.97 | 13.35 | 11.46 | 0.14 | 10.04 | 2.73 | 6.85 | 3.63 | 0.86 | 42.64 | 1.65 | 14.52
9 | P[Cit]IGVRAT[Cit] | 18.83 | 0.21 | 14.14 | 9.47 | 0.19 | 12.64 | 1.72 | 7.36 | 2.52 | 0.94 | 1.91 | 2.45 | 49.29
10 | QIIGGNYLI | 21.63 | 12.60 | 13.60 | 10.61 | 0.40 | 29.59 | 4.06 | 73.54 | 6.30 | 0.91 | 52.04 | 8.99 | 83.60
11 | QIVGGVYLL | 20.25 | 1.01 | 13.36 | 13.15 | 0.37 | 15.07 | 1.96 | 57.04 | 2.36 | 0.60 | 28.66 | 4.01 | 24.51
12 | RALAHGVRV | 20.77 | 0.84 | 29.73 | 18.08 | 0.46 | 11.84 | 4.45 | 8.69 | 2.51 | 6.37 | 2.55 | 6.07 | 70.26
13 | RNLGKVIDT | 18.90 | 1.04 | 10.18 | 13.80 | 0.61 | 11.79 | 6.22 | 6.42 | 3.15 | 2.73 | 2.42 | 4.40 | 48.14
14 | RNLGRVIET | 15.93 | 0.51 | 15.13 | 15.51 | 0.26 | 8.84 | 13.68 | 5.96 | 5.52 | 0.91 | 0.71 | 2.34 | 27.57
15 | RVIAHGLRL | 11.60 | 0.79 | 23.22 | 12.60 | 0.42 | 106.77 | 17.75 | 18.68 | 13.32 | 15.57 | 102.96 | 1.43 | 24.08
